Measurements reported in US10709707B2, “Methods of treating ocular conditions” (Oyster Point Pharma, Inc., priority 2016, dated 2020).

Legend:
human α4β2 = human α4β2 (Homo sapiens, UniProt P17787+P43681); test: Receptor binding α4β2, recombinant human receptors in SH-EP1 cells; conditions: [3H]-S-nicotine, human α4β2 expressed in SH-EP1 cells
rat bone marrow = test: in vivo rat bone marrow micronucleus test
Excerpt: Compound 1 was negative for mutagenicity in both in vitro bioassays—including an Ames test, a micronucleus test in mouse lymphoma cells, and a chromosome aberration assay using cultured human peripheral blood lymphocytes—and an in vivo rat bone marrow micronucleus test.

muscle receptor (α1β1δγ) = biological target: T1, muscle receptor (α1β1δγ) (Homo sapiens, UniProt P02708+P07510+Q07001); test: Receptor function muscle receptor, TE671 cells; format: cell-based
T1 construct: endogenous in cells; host or cells: TE671 (TE-671) cells / membranes (per the earlier reading)

[1] = binding to red blood cells and blood/plasma ratio; format: in vitro ADME; conditions: broadly species and concentration independent
Procedure: Binding of Compound 1 to red blood cells was 28 to 54% directly after spiking and 41 to 63% at 0.5 and 1 hour after spiking. The blood/plasma ratios ranged from 0.78 to 1.26 and were broadly species and concentration independent.

[2] = system: paclitaxel-induced neuropathy, allodynia; test: Reversing symptoms of paclitaxel-induced neuropathy; format: in vivo, Rat
[3] = 2-week and 13-week repeated dose TK studies, rat; format: in vivo
Procedure: In 2-week and 13-week repeated dose TK studies in rat, animals were dosed orally at 30, 100 or 200 mg/kg/day (2-week study) or at 30, 100 or 300 mg/kg/day (13-week study). […] In the 2-week study, there was a 1.2 to 2.2-fold increase in exposure from Day 1 to 15. In the 13-week study, there was a general increase from Day 1 to 29 and roughly equivalent exposure from Day 29 to 91.

[4] = Stability study of drug substance; format: physicochemical
Procedure: A previous cGMP lot of Compound 1 was manufactured.
There was a slight decrease in assay value below the 98% specification at 6 month 40° C./75% RH and 9 month 30° C./65% RH. However, based on the minimal change at accelerated conditions and the stability of the real time data, the drug substance is currently considered to be stable for at least 36 months.

T1 sequence (P11230 24-501): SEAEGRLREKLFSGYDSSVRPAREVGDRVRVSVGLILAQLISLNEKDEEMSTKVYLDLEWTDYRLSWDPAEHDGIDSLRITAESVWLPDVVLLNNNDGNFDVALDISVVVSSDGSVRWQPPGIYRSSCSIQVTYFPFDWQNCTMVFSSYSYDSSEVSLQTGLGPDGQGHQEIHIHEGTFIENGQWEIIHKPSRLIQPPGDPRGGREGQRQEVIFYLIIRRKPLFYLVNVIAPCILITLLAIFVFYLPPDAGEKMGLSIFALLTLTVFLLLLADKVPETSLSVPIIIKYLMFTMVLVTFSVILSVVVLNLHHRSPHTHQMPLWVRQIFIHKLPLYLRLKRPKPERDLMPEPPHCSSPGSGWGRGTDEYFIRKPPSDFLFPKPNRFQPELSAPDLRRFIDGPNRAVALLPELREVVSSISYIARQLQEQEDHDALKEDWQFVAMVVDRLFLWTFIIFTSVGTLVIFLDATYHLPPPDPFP
T1 sequence (P02708 21-457): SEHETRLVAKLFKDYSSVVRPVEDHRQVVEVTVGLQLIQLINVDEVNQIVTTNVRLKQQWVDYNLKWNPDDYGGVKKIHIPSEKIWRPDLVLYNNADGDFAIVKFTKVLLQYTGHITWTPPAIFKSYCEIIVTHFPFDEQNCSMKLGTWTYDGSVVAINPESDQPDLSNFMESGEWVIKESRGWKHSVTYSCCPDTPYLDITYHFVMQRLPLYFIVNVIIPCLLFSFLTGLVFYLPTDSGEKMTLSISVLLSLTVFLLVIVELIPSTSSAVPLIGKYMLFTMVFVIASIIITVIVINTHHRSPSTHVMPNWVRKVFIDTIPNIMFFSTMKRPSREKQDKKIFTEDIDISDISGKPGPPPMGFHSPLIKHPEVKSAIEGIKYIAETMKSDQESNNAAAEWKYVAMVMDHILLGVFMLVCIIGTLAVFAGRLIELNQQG
T1 sequence (Q07001 22-517): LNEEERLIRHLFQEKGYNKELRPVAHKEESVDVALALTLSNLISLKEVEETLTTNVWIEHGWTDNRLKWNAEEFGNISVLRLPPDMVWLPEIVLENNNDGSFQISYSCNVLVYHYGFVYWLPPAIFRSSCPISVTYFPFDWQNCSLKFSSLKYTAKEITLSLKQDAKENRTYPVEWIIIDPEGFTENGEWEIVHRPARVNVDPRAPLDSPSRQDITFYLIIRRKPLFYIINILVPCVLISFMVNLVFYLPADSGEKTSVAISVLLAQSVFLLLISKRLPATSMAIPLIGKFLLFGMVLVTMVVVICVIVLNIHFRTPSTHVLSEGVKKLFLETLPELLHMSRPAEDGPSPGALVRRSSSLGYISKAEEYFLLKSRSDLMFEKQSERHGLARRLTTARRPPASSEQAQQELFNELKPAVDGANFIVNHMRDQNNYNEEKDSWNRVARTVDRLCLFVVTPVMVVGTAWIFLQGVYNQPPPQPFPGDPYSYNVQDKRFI
T1 sequence (P07510 23-517): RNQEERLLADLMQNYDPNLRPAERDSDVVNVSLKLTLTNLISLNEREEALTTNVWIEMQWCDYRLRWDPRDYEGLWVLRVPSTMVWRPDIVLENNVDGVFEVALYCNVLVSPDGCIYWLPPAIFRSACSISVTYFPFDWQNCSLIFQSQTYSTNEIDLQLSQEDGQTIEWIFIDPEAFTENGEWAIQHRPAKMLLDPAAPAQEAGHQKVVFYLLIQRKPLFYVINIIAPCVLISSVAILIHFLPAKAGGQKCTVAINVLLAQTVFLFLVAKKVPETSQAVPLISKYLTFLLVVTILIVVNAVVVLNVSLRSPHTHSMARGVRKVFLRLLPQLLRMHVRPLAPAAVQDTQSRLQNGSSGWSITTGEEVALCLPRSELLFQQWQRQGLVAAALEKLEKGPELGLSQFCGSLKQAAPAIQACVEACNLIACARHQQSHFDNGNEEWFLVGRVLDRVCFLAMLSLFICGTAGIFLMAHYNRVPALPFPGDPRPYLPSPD
human α4β2, sequence (P43681 29-627 limits assumed): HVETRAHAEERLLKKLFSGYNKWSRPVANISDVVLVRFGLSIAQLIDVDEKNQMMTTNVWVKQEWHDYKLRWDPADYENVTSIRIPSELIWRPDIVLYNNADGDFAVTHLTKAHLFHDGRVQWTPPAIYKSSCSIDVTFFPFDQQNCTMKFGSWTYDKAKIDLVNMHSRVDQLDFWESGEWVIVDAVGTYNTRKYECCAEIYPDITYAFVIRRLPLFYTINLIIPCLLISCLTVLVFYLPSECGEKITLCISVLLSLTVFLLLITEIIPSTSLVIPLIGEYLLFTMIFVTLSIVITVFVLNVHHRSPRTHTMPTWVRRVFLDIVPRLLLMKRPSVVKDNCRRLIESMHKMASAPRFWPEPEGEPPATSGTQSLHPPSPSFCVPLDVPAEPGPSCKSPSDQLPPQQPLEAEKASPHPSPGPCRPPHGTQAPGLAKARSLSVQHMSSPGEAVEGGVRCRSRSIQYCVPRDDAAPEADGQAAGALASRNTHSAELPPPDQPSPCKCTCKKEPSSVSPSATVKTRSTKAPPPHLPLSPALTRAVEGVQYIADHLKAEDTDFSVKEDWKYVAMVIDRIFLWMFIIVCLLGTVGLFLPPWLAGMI
human α4β2, sequence (P17787 26-502): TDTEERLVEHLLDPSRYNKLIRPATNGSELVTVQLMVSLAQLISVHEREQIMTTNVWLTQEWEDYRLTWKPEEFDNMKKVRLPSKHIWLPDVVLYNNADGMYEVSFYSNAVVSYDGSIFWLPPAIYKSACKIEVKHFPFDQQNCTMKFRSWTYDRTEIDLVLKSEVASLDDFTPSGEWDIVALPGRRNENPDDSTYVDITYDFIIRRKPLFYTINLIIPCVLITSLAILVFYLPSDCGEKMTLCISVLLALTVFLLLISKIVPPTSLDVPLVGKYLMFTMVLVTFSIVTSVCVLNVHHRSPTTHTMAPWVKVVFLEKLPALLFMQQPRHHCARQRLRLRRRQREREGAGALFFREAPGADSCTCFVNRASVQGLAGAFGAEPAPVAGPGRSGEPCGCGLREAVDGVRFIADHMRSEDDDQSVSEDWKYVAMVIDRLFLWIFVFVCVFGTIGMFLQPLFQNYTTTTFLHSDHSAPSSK

## C(=C\[C@H]1CCNC1)/c1cncnc1 [Compound 1, (R)-5-((E)-2-pyrrolidin-3-ylvinyl)pyrimidine]
Human α4β2
  Ki: 0.017 µM
Rat bone marrow
  mutagenicity, bone marrow micronucleus test: negative
Muscle receptor (α1β1δγ)
  EC50: 15 µM
Muscle receptor (α1β1δγ); TE-671, Human muscle-type, Ca++ Flux
  Emax: 42%
Muscle receptor (α1β1δγ); TE-671, Human muscle-type, Rb+ Flux, single point
  Emax: 12%
Muscle receptor (α1β1δγ); TE-671, TE671 cells
  Emax: 42%
[1]
  blood plasma ratio: 0.78 to 1.26
[2]; 3 weeks post-dosing, only the 0.1 mg/kg dose
  allodynia vs vehicle-treated group: significantly different from vehicle.
[2]; once daily po 0.01, 0.1, 1.0 mg/kg, all doses, 4 weeks post-paclitaxel dosing
  allodynia vs vehicle-treated group: at all doses significantly reduced
[2]; paclitaxel-induced, 0.01-1 mg/kg p.o.
  reversing tactile allodynia: efficacious
[3]; Days 1 and 15 (2-week), Days 1, 29 and 91 (13-week)
  exposure parameters (Cmax and AUC0-24) vs dose: increased roughly in proportion to dose
[3]; both sexes, rat, plasma, oral 30-300 mg/kg/day, 2-week and 13-week studies
  Tmax: 0.5 to 2 h
[3]; both studies
  exposure in females compared with males: generally higher
[4]; 6 month, 40° C./75% RH
  assay value: < 98%
[4]; 9 month, 30° C./65% RH
  assay value: < 98%
[4]; 25° C./60% RH, 1 M
  Assay (HPLC-UV): 102.4%
  Related Substances, RRT = 0.26: 0.09 % w/w
  Total Related Substances: 0.09%
  Water Content (Karl Fischer): 12.10 % w/w
[4]; 25° C./60% RH, 3 M
  Assay (HPLC-UV): 100.2%
  Related Substances, RRT = 0.26: 0.09 % w/w
  Total Related Substances: 0.09%
  Water Content (Karl Fischer): 12.25 % w/w
[4]; 25° C./60% RH, 6 M
  Assay (HPLC-UV): 98.9%
  Total Related Substances: 0.05%
  Water Content (Karl Fischer): 12.04 % w/w
[4]; 25° C./60% RH, 9 M
  Assay (HPLC-UV): 99.7%
  Related Substances, RRT = 0.26: 0.09 % w/w
  Total Related Substances: 0.12%
  Water Content (Karl Fischer): 11.52 % w/w
[4]; 25° C./60% RH, 12 M
  Assay (HPLC-UV): 101.2%
  Chiral Purity: 100 % ee
  Related Substances, RRT = 0.18: 0.10 % w/w
  Related Substances, RRT = 0.88: 0.05 % w/w
  Total Related Substances: 0.16%
  Water Content (Karl Fischer): 11.52 % w/w
[4]; 25° C./60% RH, 18 M
  Assay (HPLC-UV): 100.4%
  Related Substances, RRT = 0.26: 0.07 % w/w
  Total Related Substances: 0.07%
  Water Content (Karl Fischer): 11.50 % w/w
[4]; 25° C./60% RH, 24 M
  Assay (HPLC-UV): 100.0%
  Chiral Purity: 100 % ee
  Related Substances, RRT = 0.26: 0.05 % w/w
  Total Related Substances: 0.05%
  Water Content (Karl Fischer): 11.42 % w/w
[4]; 25° C./60% RH, 36 M
  Assay (HPLC-UV): 99.7%
  Chiral Purity: 100 % ee
  Related Substances, RRT = 0.26: 0.04 % w/w
  Total Related Substances: 0.04%
  Water Content (Karl Fischer): 11.53 % w/w
[4]; 25° C./60% RH, Initial
  Assay (HPLC-UV): 100.9%
  Chiral Purity: 100 % ee
  Related Substances, RRT = 0.26: 0.05 % w/w
  Total Related Substances: 0.05%
  Water Content (Karl Fischer): 11.36 % w/w
[4]; real time 25° C./60% RH data
  time for which drug substance is considered stable: at least 36 months
